Results: the METLIN SMRT retention time set (Domingo-Almenara et al. 2019)

Assay: gradient 5% acetonitrile 3 min, to 50% in 2 min, to 85% in 15 min, held 3 min, 100 µL/min
Settings: column: Zorbax Extend-C18 2.1 x 50 mm; eluents: water / acetonitrile, 0.1% formic acid
Outline: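 Retention time was recorded from adduct peaks, which were picked computationally and each inspected manually. Pure standards ran in mixtures of ~100 molecules on HPLC coupled to a quadrupole time-of-flight mass spectrometer, in positive and negative ionization mode, through a Zorbax Extend-C18 column (2.1 × 50 mm, 1.8 μm) at 100 μL/min. Eluents were water and acetonitrile, each with 0.1% formic acid.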

RP-LC retention time [s] | Structure (SMILES)
734 | COc1cccc(-n2nnc(C(=O)O)c2C(C)C)c1
716 | CN1C(=O)C(c2c(-c3ccc(Cl)cc3)[nH]c3[nH]c(=O)[nH]c(=O)c23)c2ccccc21 (stereo not given)
843 | CCOc1ccc(S(=O)(=O)N2CCC(c3nc(C(=O)N(C)C)c(C)o3)CC2)cc1
844 | O=C(Nc1cnc(N2CCCCCC2)nc1)C1CCCC1
752 | O=C(NC1CCN(c2cc(-c3cccs3)[nH]n2)C1)c1ccc(F)c(F)c1 (stereo not given)
698 | CC(C)C(=O)N1CCc2c(c(C(=O)N3CCC(C(=O)NC4CCCCCC4)CC3)nn2C)C1
562 | Cc1cc(NCc2ccccn2)n2ncnc2n1
675 | Cc1cc2[nH]c(C(=O)Nc3c(F)cccc3F)c(CN3CCOCC3)c2s1
848 | CCCn1c(=O)sc2cc(S(=O)(=O)N3CCC(C(=O)NCc4ccco4)CC3)ccc21
690 | CC(C)(C)n1nc2c(c1NC(=O)c1cccs1)CS(=O)(=O)C2
899 | COCc1cnc2c(c1SCc1ccccc1F)c(=O)n(C)c(=O)n2C
558 | O=C(Cc1csc(-n2cccc2)n1)N1CCC(c2nc3ccccc3[nH]2)CC1
712 | O=C(NCC1CC1)c1cn(C2CN(C(=O)CCc3c[nH]c4ccccc34)C2)nn1
711 | O=C(Cc1cccs1)N1CCC[C@H]1c1nc(-c2ccccc2)n[nH]1
704 | Cc1c(Cl)cccc1-c1ccc(CNCCc2ccc(S(N)(=O)=O)cc2)o1
1090 | Cc1c(-c2noc(-c3cccc(F)c3)n2)nnn1-c1ccccc1
1100 | COc1ccc(NC(=O)c2cc(C)n3nc(-c4ccco4)cc3n2)c(OC)c1
690 | COc1ccccc1NC(=O)Cn1nc2c3sc(N(C)C)nc3ncn2c1=O
912 | Cc1ccc2c(c1)C1CC(C)(O2)N(c2cccc(C(=O)O)c2)C(=O)N1 (stereo not given)
1020 | Cc1ccc(-c2nnc(Cc3nc(-c4ccc5c(c4)OCO5)no3)o2)cc1F
634 | COc1cc(C(=O)Nc2ccc(-c3cn4cccnc4n3)cc2)cc(OC)c1OC
580 | COc1ccc(NC(=O)N2CCc3nc[nH]c3C2)cc1Cl

RP-LC retention time [s] | Structure (SMILES)
614 | CCN1CCN(c2nc3c(s2)CN(C(=O)CCC(C)C)CC3)CC1
814 | Cc1cc(Cl)ccc1NC(=O)N1CCN(C2=CC3=NCC(C)N3C=N2)CC1 (stereo not given)
913 | CC(C)NC(=O)C1CCN(S(=O)(=O)c2cc(-c3noc(C4CCC4)n3)cs2)CC1
802 | COc1cc(/C=C2\CCOC2=O)cc(OC)c1OC
638 | CCOC(=O)C1CCC(CNC(=O)Nc2cc3c(cc2N2CCCC2)n(C)c(=O)n3C)CC1 (stereo not given)
979 | O=C(c1ccccc1Cl)N1CCC(COCc2ccccc2)CC1
702 | O=C1COc2ccc(S(=O)(=O)N3CCC(C(=O)NCc4cccs4)CC3)cc2N1
829 | Cc1ccccc1Oc1nccn2c(=O)n(CC(=O)Nc3ccc(F)cc3F)nc12
845 | O=C(Nc1ccccc1-n1cccc1)c1cn(-c2ccc(F)cc2)nn1
698 | CCN1CCN(c2ccc(-c3nc(-c4cccc(F)c4)no3)cn2)CC1
971 | COc1ccc(-c2noc(CN3C(=O)COc4ccc(Cl)cc43)n2)cc1OC
625 | Cc1noc(C)c1CC(=O)NC1CCc2nn(CC3CC3)c(=O)n2CC1 (stereo not given)
878 | COc1cc(CNc2nnc(-c3nnc(C4CC4)o3)c3ccccc23)cc(OC)c1
883 | CCCC(=O)Nc1cc2c(cc1S(=O)(=O)c1ccccc1)n(CC)c(=O)n2CC
1110 | O=c1c2cc3c(cc2nc(SCc2nc(-c4cccc(F)c4)no2)n1CC1CCCO1)OCO3 (stereo not given)
1090 | O=C(NCCCc1ccccc1)C1CCCN(c2nccnc2Sc2ccccc2)C1 (stereo not given)
1070 | Cc1sc(-c2cc(C(F)(F)F)on2)cc1S(=O)(=O)Nc1ccc2c(c1)OCCO2
856 | CCN1C(=O)COc2ccc(-c3noc(C(C)NC(=O)c4ccccc4)n3)cc21 (stereo not given)
722 | COc1cc(OC)c(NC(=O)Cn2nc3n(c2=O)CCCCC3)cc1Cl
644 | Cc1ccc2nc(NC(C)(C)CO)nc(-c3ccccc3)c2c1
945 | COc1cccc(-c2ccnc3nc(Cc4cc(F)cc(F)c4)nn23)c1
989 | O=C(Cn1nc(N2CCCC2)c2ccccc2c1=O)Nc1cccc(Cl)c1

RP-LC retention time [s] | Structure (SMILES)
575 | CCC1CN2C=NC(N3CCN(C(=O)c4ccoc4)CC3)=CC2=N1 (stereo not given)
581 | COc1ccc(NC(=O)N2CCC(n3cnc4cccnc43)CC2)cc1OC
1020 | CCCNc1nc(-c2cccc(Cl)c2)cs1
665 | Oc1ccc(Nc2ccnc3cc(Cl)ccc23)cc1
902 | CCOc1ccc(NS(=O)(=O)c2cc(C(=O)Nc3ccc(C)c(C)c3)n[nH]2)cc1
841 | O=C(NCCc1ccco1)C1CCN(Cc2cc3ccccc3n2Cc2ccccc2Cl)CC1
812 | Cn1c(=O)sc2cc(S(=O)(=O)N3CCC(C(=O)Nc4ccc5c(c4)OCCO5)CC3)ccc21
734 | O=C(NC1CCCc2ccccc21)C1CCCN(c2ccnc(-c3ccc(F)cc3)n2)C1 (stereo not given)
918 | CCc1nnc2ccc(-c3noc(Cc4ccc(C)cc4)n3)cn12
592 | COc1ccccc1CNC(=O)CSc1ccc(-c2cccnc2)nn1
638 | Cc1ccc(NC(=O)CN2CCc3[nH]c4c(C)ccc(F)c4c(=O)c3C2)cc1F
726 | CCn1ccc2c(cc(C(=O)Nc3ccc(F)cc3C)n2C)c1=O
793 | O=c1n(Cc2ccccc2)nc2n1CCN(S(=O)(=O)c1ccccc1)CC2
801 | Cc1ccccc1C(=O)N1CCc2c(c(-c3nc(C4CC4)no3)nn2C)C1
624 | Cn1c(=O)n(C)c2cc(CNC(C)(C)CC(C)(C)C)ccc21
1110 | COc1ccc(-c2nnc(-c3cccc(S(=O)(=O)N4CCC(C)CC4)c3)o2)cc1
660 | Cc1nc(CNC(=O)C2CCN(C(=O)NCCc3ccccc3)CC2)cs1
1140 | CCN1C(=O)COc2ccc(-c3noc(-c4ccccc4C(F)(F)F)n3)cc21
964 | Cc1cc(F)ccc1NC(=O)C1CN(S(=O)(=O)C2CC2)CC12CCCCC2 (stereo not given)
1020 | COc1ccccc1CNC(=O)c1nnc(-c2ccc(S(=O)(=O)N3CCC(C)CC3)cc2)o1
851 | Cc1cc(C)cc(NC(=O)C2CCN(S(=O)(=O)c3ccc4[nH]c(=O)sc4c3)CC2)c1
774 | CCNc1nc(C)cc(N2CCN(S(=O)(=O)c3cc(C)c(C)cc3C)CC2)n1

RP-LC retention time [s] | Structure (SMILES)
728 | CCOC(=O)CNC(=O)N1CCCC1c1ccc(OC)cc1 (stereo not given)
738 | CCn1cc(-c2ccc(Cl)cc2)cc1C(=O)NCc1cccnc1
977 | Cc1nc(-c2csc(S(=O)(=O)N3CCCC(C(=O)N4CCc5ccccc5C4)C3)c2)no1 (stereo not given)
595 | CS(=O)(=O)N(Cc1ccncc1)C1CN(S(=O)(=O)c2ccccc2)C1
732 | Cc1cc2c(=O)n(CC(=O)NCc3ccccc3F)ccc2s1
1340 | COc1cccc(-n2c(=O)c(C(=O)Nc3ccc(Cl)cc3)c(O)c3cccnc32)c1
790 | CCOC(=O)c1c(C)[nH]c(C(=O)N2CCCC(C(=O)NCc3ccccc3F)C2)c1C (stereo not given)
685 | CCn1c(CCNC(=O)c2ccc3ccccc3n2)nc2cccnc21
739 | CCc1ccc(N2CC(c3nc4ccccc4n3CC(=O)N3CCCC3)CC2=O)cc1 (stereo not given)
682 | CCS(=O)(=O)N1CCc2ccc(NC(=O)c3ccco3)cc2C1
671 | Cc1cc(C)n2nc(SCC(=O)NCc3ccc(F)cc3)nc2n1
583 | COc1ccc2c(c1)CCN(C(=O)CNC(=O)c1ccc(=O)[nH]c1)C2
755 | Cc1ccc(NC(=O)C2(C)Oc3cccnc3NC2=O)cc1F (stereo not given)
739 | CCc1ccc(OCC(O)Cn2c(C3CC3)nc3ccccc32)cc1 (stereo not given)
676 | Cc1cc(C)cc(-n2c(CN3CCN(C(=O)Nc4ccc5c(c4)OCO5)CC3)nc3cccnc32)c1
728 | Cc1cnc(-c2cc(N3CCN(C(=O)CCS(C)(=O)=O)CC3)ncc2Cl)c(C)c1
737 | CCc1cccc2cc([C@@H](O)CNC(C)(C)C)oc12
1060 | CSc1ccc(-c2nc3cnccn3c2Nc2cccc(C)c2C)cc1
685 | CC(=O)Nc1ccc(CC(=O)NC(C)C(=O)N2CCCc3ccccc32)cc1 (stereo not given)
730 | COc1cc([C@H]2c3cc4c(cc3[C@@H](O)[C@H](CO)[C@H]2C(=O)Nc2ccccc2)OCO4)cc(OC)c1OC
658 | CCNC(=O)c1cn(-c2ccc(NC(=O)CC(C)C)cn2)cn1

Structure (SMILES) | RP-LC retention time [s]
COc1ccc2c(c1)C1(CCN(C(=O)c3ccc(OC)c(OC)c3)C1)C(=O)N2 (stereo not given) | 674
Cc1nc(-c2csc(S(=O)(=O)N3CCCC(C(=O)N4CCC5(CC4)OCCO5)C3)c2)no1 (stereo not given) | 798
CCc1ccc(NC(=O)c2cn(CC)c3ncccc23)cc1 | 962
